Data: ChEMBL document CHEMBL5390225, “Discovery and structural optimization of a new series of N-acyl-2-aminobenzothiazole as inhibitors of Zika virus” (Bioorg Med Chem, 2023)

Legend:
[1] = tested on: Zika virus; experiment: (§1) Inhibition of Zika virus BeH823339 NS2B protease (49 to 95 residues) R96A mutant/NS3 protease (1 to 170 residues) R29G/ C80S/C143S mutant expressed in Escherichia coli BL21 (DE3) cells using Bz-Nle-Lys-Lys-Arg-AMC as a fluorogenic substrate at 50 uM preincubated with 2 nM enzyme for 10 mins by fluorescence-based analysis relative to control
[2] = tested on: Zika virus; experiment: Antiviral activity against Zika virus PE243 infected in African green monkey Vero E6 cells assessed as inhibition of viral replication at 2 uM incubated for 72 hrs by immunofluorescence analysis; format: functional; conditions: PE243, Vero C1008
[3] = tested on: Zika virus; experiment: as §1, with “100” for “50”, “uM” for “uM preincubated with 2 nM enzyme for 10 mins”
[4] = tested on: Zika virus; experiment: as §1, with “100” for “50”, “with” for “with 2 nM”, “mins in presence of 0.001% TritonX-100” for “mins”, “analysis” for “analysis relative to control”
[5] = tested on: Zika virus; experiment: Antiviral activity against Zika virus PE243 infected in African green monkey Vero E6 cells assessed as inhibition of viral replication at 10 uM incubated for 72 hrs by immunofluorescence analysis; format: functional; conditions: PE243, Vero C1008
[6] = as §1, with “substrate” for “substrate at 50 uM”, “with” for “with 2 nM”, “analysis” for “analysis relative to control”
[7] = Cytotoxicity against African green monkey Vero E6 cells assessed as cell viability at 2 uM measured after 72 hrs by MTT assay relative to control; format: toxicity, cell-based, Vero C1008; conditions: chlorocebus sabaeus, read-out: Activity
[8] = tested on: Zika virus; experiment: as §1, with “with 0.2” for “with 2”
[9] = tested on: Zika virus; experiment: as §1, with “with” for “with 2 nM”, “mins in presence of BSA” for “mins”
[10] = target: Cruzipain (Trypanosoma cruzi) (UniProt P25779); experiment: Inhibition of recombinant Trypanosoma cruzi Cruzain using Z-Phe-Arg-AMC as fluorogenic substrate at 50 uM preincubated with enzyme for 10 mins by fluorescence-based analysis relative to control
Sequence of Cruzipain (Trypanosoma cruzi) (P25779 123-467 limits assumed): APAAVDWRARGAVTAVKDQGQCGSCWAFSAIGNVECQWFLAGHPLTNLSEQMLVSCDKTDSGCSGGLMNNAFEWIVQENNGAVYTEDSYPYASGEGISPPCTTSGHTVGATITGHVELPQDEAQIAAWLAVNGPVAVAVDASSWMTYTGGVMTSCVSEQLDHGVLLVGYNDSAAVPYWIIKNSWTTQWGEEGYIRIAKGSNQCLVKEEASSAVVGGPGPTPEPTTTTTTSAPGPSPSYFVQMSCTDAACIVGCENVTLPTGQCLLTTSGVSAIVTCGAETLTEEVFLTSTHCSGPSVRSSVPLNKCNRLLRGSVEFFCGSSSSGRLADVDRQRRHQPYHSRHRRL

[11] = tested on: Zika virus; experiment: as §1, with “100” for “50”, “with” for “with 2 nM”
[12] = Cytotoxicity against African green monkey Vero E6 cells assessed as cell viability at 10 uM measured after 72 hrs by MTT assay relative to control; format: toxicity, cell-based, Vero C1008; conditions: chlorocebus sabaeus, read-out: Activity
[13] = tested on: Zika virus; experiment: Antiviral activity against Zika virus PE243 infected in African green monkey Vero E6 cells assessed as inhibition of viral replication incubated for 72 hrs by immunofluorescence analysis; format: functional, organism-based; conditions: PE243, Vero C1008, 72 h
[14] = tested on: Zika virus; experiment: Antiviral activity against Zika virus infected in golden hamster BHK21-RepZIKV_IRES-Neo cells assessed as inhibition of viral replication by measuring reduction in renilla luciferase expression at 10 uM measured after 72 hrs by luciferase reporter gene assay relative to control; format: functional, Mesocricetus auratus; conditions: BHK-21
[15] = Cytotoxicity against African green monkey Vero E6 cells assessed as reduction in cell viability measured after 72 hrs by MTT assay; format: toxicity, cell-based, Vero C1008; conditions: chlorocebus sabaeus
[16] = Selectivity index, ratio of CC50 for cytotoxicity against African green monkey Vero E6 cells to EC50 for antiviral activity against Zika virus PE243 infected in African green monkey Vero E6 cells; format: toxicity, cell-based, Vero C1008; conditions: read-out: Ratio CC50/EC50
[17] = tested on: BHK-21; experiment: Cytotoxicity against golden hamster BHK21-RepZIKV_IRES-Neo cells assessed as reduction in cell viability measured after 72 hrs by MTT assay; format: toxicity, cell-based, Mesocricetus auratus; conditions: bhk-21, 72 h
[18] = target: Cruzipain (Trypanosoma cruzi) (UniProt P25779); experiment: Inhibition of recombinant Trypanosoma cruzi Cruzain using Z-Phe-Arg-AMC as fluorogenic substrate at 25 uM preincubated with enzyme for 10 mins by fluorescence-based analysis relative to control
[19] = tested on: Zika virus; experiment: as §1, with “25” for “50”
[20] = tested on: Zika virus; experiment: as §1, with “25” for “50”, “with” for “with 2 nM”, “mins in presence of BSA” for “mins”
[21] = tested on: Zika virus; experiment: as §1, with “at 25” for “at 50”, “with 0.2” for “with 2”
[22] = tested on: Zika virus; experiment: as §1, with “12.5” for “50”
[23] = target: Cruzipain (Trypanosoma cruzi) (UniProt P25779); experiment: Inhibition of recombinant Trypanosoma cruzi Cruzain using Z-Phe-Arg-AMC as fluorogenic substrate at 12.5 uM preincubated with enzyme for 10 mins by fluorescence-based analysis relative to control
[24] = tested on: Zika virus; experiment: as §1, with “at 12.5” for “at 50”, “with 0.2” for “with 2”
[25] = tested on: Zika virus; experiment: as §1, with “Non-competitive inhibition” for “Inhibition”, “using 5.5 to 88 uM of” for “using”, “compound concentration close to IC50” for “50 uM”, “with” for “with 2 nM”
[26] = tested on: Zika virus; experiment: as §1, with “10” for “50”, “with” for “with 2 nM”, “mins in presence of BSA” for “mins”

Row | Structure (SMILES) | inhibition at 2 µM [2] | inhibition [3] | inhibition at 10 µM [5] | viability at 72 h, 2 µM [7] | inhibition [11] | viability at 72 h, 10 µM [12] | EC50 [13] | inhibition at 10 µM [14] | CC50 at 72 h [15] | selectivity ratio [16] | Activity [17] | other results
1 | COc1ccc(S(=O)(=O)Nc2ccccc2C(=O)Nc2nc3ccccc3s2)cc1 | 5.4% | 92% | 1% | 98.5% | 100% | 104% | – | – | – | – | – | inhibition [1]: 25%; inhibition [4]: 53%; IC50 [6]: 24 µM; inhibition [8]: 39%; inhibition [9]: 20%; inhibition [10]: 96%
2 | COc1ccc(S(=O)(=O)Nc2cccc(C(=O)Nc3nc4ccccc4s3)c2)cc1 | 72.9% | 2% | 87.5% | 79.3% | 11% | 17.7% | 5.1 µM | 40.3% | 128 µM | 25.1 | Non-Toxic | –
3 | O=C(Nc1nc2ccccc2s1)c1ccc(NS(=O)(=O)c2ccc([N+](=O)[O-])cc2)cc1 | 0% | 30% | 72.1% | 101% | 39% | 99.7% | 7.5 µM | 23.4% | 30.2 µM | 4 | Non-Toxic | –
4 | O=C(Nc1nc2ccccc2s1)c1ccc(NS(=O)(=O)c2ccc(Br)cc2)cc1 | 69.1% | 7% | 75.7% | 97% | 4% | 22.7% | 5 µM | 60.4% | 45.8 µM | 9.2 | Non-Toxic | –
5 | O=C(CNS(=O)(=O)c1ccc(F)cc1)Nc1nc2ccccc2s1 | 15.9% | – | 65.1% | 95.6% | 43% | 26.5% | – | – | – | – | – | –
6 | COc1ccc(OC)c(S(=O)(=O)NCC(=O)Nc2nc3ccccc3s2)c1 | 8.3% | 51% | 7.9% | 112% | 93% | 102% | – | – | – | – | – | inhibition [18]: 3%; inhibition [4]: 12%; IC50 [6]: 24 µM; inhibition [19]: 12%; inhibition [20]: 11%; inhibition [21]: 28%
7 | O=C(Nc1nc2ccccc2s1)c1ccc(NS(=O)(=O)c2ccccc2)cc1 | 44.7% | 20% | 82.6% | 85.9% | 28% | 17.7% | – | – | – | – | – | –
8 | COc1ccc(S(=O)(=O)NCC(=O)Nc2nc3ccccc3s2)cc1 | 0% | – | 0% | 104% | 62% | 82.7% | – | – | – | – | – | –
9 | Cc1ccc(S(=O)(=O)NCC(=O)Nc2nc3ccccc3s2)cc1 | 6.8% | – | 27.9% | 101% | 21% | 74.4% | – | – | – | – | – | –
10 | Cc1ccc(S(=O)(=O)Nc2ccc(C(=O)Nc3nc4ccccc4s3)cc2)cc1 | 5.5% | 20% | 83% | 70.6% | 28% | 19.5% | – | – | – | – | – | –
11 | COc1ccc(S(=O)(=O)Nc2ccc(C(=O)Nc3nc4ccccc4[nH]3)cc2)cc1 | 0% | – | 0% | 93.1% | 43% | 25.9% | – | – | – | – | – | –
12 | O=C(Nc1nc2ccccc2s1)c1ccc(NC(=S)Nc2ccccc2)cc1 | 9.4% | 46% | 73.6% | 96% | 99% | 29% | – | – | – | – | – | inhibition [22]: 9%; inhibition [23]: 72%; inhibition [24]: 15%; inhibition [4]: 46%; inhibition [25]: 25%; IC50 [6]: 8 µM; inhibition [26]: 12%
13 | COc1cc(Cl)ccc1S(=O)(=O)Nc1ccc(C(=O)Nc2nc3ccccc3s2)cc1 | 64.5% | 3% | 100% | 44% | 5% | 17.5% | 10.7 µM | 3.4% | 23.9 µM | 2.2 | Non-Toxic | –
14 | CC(C)(C)OC(=O)NCC(=O)Nc1nc2ccccc2s1 | 18.9% | – | 56.5% | 104% | – | 60.1% | 17 µM | – | 79 µM | 4.7 | – | –
15 | O=C(Nc1nc2ccccc2s1)c1ccc(NS(=O)(=O)c2ccc(F)cc2)cc1 | 15.3% | 22% | 54.7% | 93.6% | 27% | 40.4% | – | – | – | – | – | –
16 | COc1ccc(S(=O)(=O)Nc2ccccc2C(=O)Nc2nc3ccccc3[nH]2)cc1 | 97.6% | 62% | 98.8% | 33.5% | 100% | 19.9% | 33.9 µM | 46.4% | 56.5 µM | 1.7 | Non-Toxic | inhibition [22]: 16%; inhibition [23]: 58%; inhibition [24]: 62%; inhibition [4]: 42%; IC50 [6]: 8 µM; inhibition [26]: 8%
17 | COc1ccc(S(=O)(=O)Nc2ccc(C(=O)Nc3nccs3)cc2)cc1 | 4.9% | – | 16.1% | 95.7% | 7% | 98.9% | – | – | – | – | – | –
18 | COc1ccc(S(=O)(=O)Nc2ccccc2C(=O)Nc2nccs2)cc1 | 68.6% | 62% | 100% | 36.2% | 100% | 34.8% | 5 µM | 75.5% | 38.7 µM | 7.7 | Non-Toxic | inhibition [18]: 20%; inhibition [4]: 24%; IC50 [6]: 26 µM; inhibition [19]: 20%; inhibition [20]: 5%; inhibition [21]: 43%
19 | CC(=O)Nc1ccc(S(=O)(=O)Nc2ccc(C(=O)Nc3nc4ccccc4s3)cc2)cc1 | 0.9% | 44% | 25.8% | 98.1% | 57% | 72.3% | – | – | – | – | – | –
